From patent US8796241B2, “Therapy of tumors and infectious agents deficient in methylthioadenosine phosphorylase” (priority 2007, dated 2014)

How the values were obtained:
MTAP-negative cell lines = test: Applicants' tissue culture experiments on MTAP-negative cell lines (summary statements); format: cell-based, human; mouse; conditions: co-administered inhibitor of de novo purine synthesis
MTAP(+) HF cells [1] = test: Coulter counts of HF cell cultures; format: cell-based, human; conditions: for Coulter counts: x56 = cells/dish
Procedure: For adherent cell types (e.g., HF, A549, MCF7) cells were plated in 60 mm -diameter plastic tissue culture dishes and incubated at 37° C. in a humidified 5% CO2 atmosphere, in Dulbecco's Modified Eagle's Medium (DME) with 10% fetal bovine serum (FBS). At the start of an experiment, medium was replaced with DME and 10% dialyzed FBS.
(§1) For adherent cell types, cell numbers were determined periodically by releasing cells with trypsin (dead cells that were no longer adherent were removed by two prior rinses of the culture dish) and placing a portion of the resulting cell suspension in a Coulter counter. For cell types that grow in suspension, portions of the culture were counted directly, without trypsin treatment. Coulter counts of cells from each dish were done twice, and almost all experiments were done in duplicate. In the presentation of results, raw data for Coulter counts is given in some cases, while in others, counts have been rounded off to two to three significant figures. (Background Coulter counts—i.e., counts of diluent alone—were insignificant.)
Cell cultures were treated with MeP, with or without 5′-dAdo or MTA, for 4 days. The cell cultures were then changed to fresh medium, with the addition of 30 μM Ade to inhibit further action of the analog. Two days later cultures were trypsinized and a portion of the suspension was counted.
• A. F-Ade was added to cultures of HF cells, with varying amounts of 5′-dAdo. After 3 days, cell numbers were counted. • Initial cell count: 1,100 • After three days:
• Cultures of human fibroblasts were treated with DAP, 5′-dAdo, MTA, adenine, or MTX. Thymidine (15 μM) was added to all cultures. • Initial count was: 1807 • Counts, as raw data, after 3 days of incubation, are shown below: […]
• Human fibroblasts in culture were treated with 6-thioguanine (TG), 2,6-diaminopurine (DAP), or 5′-dAdo for 3 days. After trypsinization, cell numbers were counted. • Initial cell number: 296,000

MTAP(−) A549 cells = test: Clonogenic assay of A549 cells; format: cell-based, human; conditions: for potentiation of killing of A549 cells by DAP: Example 9
Procedure: (§2) Cell viability of adherent cell types was measured by clonogenic assay as follows: after releasing cells with trypsin and removing a portion of the cell suspension for Coulter counting, the remainder of the cell suspension was plated in serial dilutions in growth medium, without drugs. After a period sufficient for clones to reach a size visible by eye (usually 2 to 3 weeks), clones were stained with crystal violet in a saline/methanol solution. Dishes that had fewer than 100 clones were deemed suitable for counting. From these counts and from the dilution factors, the approximate number of viable cells, in the parent treatment dishes, was calculated. […] In clonogenic assays, clone size was often variable, especially after treatment with toxic drugs. Moreover, many of the very small clones may have arisen from cells detached during the weeks of incubation. […] Cloning efficiency for healthy, growing A549 cells was about 50%; for HF cells, efficiency was quite variable, ranging from 25 to 75% (perhaps because the HF cell stock varied, from experiment to experiment, in passage number).
A549 cells were incubated for 4 days with additions shown below, and viable cells measured by clonogenic assay. (Results shown are approximate; see Methods) Cell count in dish at start: 40,000
• MTAP(−) A549 lung tumor cell cultures were treated with F-Ade, with or without MTA, 5′-dAdo, or adenine (Ade), for three days. Coulter counts of cells, and viable cells as determined by clonogenic assay, are shown below: • Initial cell number: 10,340*
• A549 cell cultures were treated with DAP, with or without 5′-dAdo or adenine, for three days. After trypsinization, one-fourth of the cell suspension was counted, and raw data is shown below, with duplicate counts for each sample. The cell suspension was also serially diluted for clonogenic assay. • Counts at start of experiment: Dish one: 36,480; 39,160; Dish two: 52,680; 51,360. • Initial viable cells by clonogenic assay: 180,000.
• Cell cultures were treated with MTX or alanosine for one day. DAP was then added and 3 days later, cells were trypsinized and serially diluted for clonogenic assay. Results are shown below: • Initial viable cells: 146,000
• A549 cells were plated, and after they had adhered to the substrate, medium was changed to methionine-free medium with 10% dialyzed serum. L-ethionine (Eth) and MTA were added, and after 4 days, cell cultures were trypsinized and serially diluted for clonogenic assay. • Initial number of viable cells: 160,000*
• A549 cultures were treated with 6-thioguanine (TG) or 2,6,diaminopurine (DAP), or both, for 3 days. • Initial viable cells: 275,000 • After 3 days: […]

[2] = system: MTAP(+) hematopoietic cell progenitors; test: Assay of colony-forming cells from mouse bone marrow; format: cell-based
Source text: Method: The procedure for assay of colony-forming cells from mouse bone marrow was similar to methods described in the literature (see e.g., B. A. Teicher et al, Cancer Research, 47:513-518, 1987). In brief, cells were flushed from the femurs of Swiss mice, counted, and seeded into six-well tissue culture plates with supplemented McCoy's 5A medium, 15% FBS, 10 to 20% L929-cell conditioned medium as a source of colony-stimulating activity (L929 is MTAP-negative), 0.3% agar, and penicillin/streptomycin (op. cit. B. A. Teicher et al). Cells were seeded at two different densities: 50,000 and 250,000 cells per well. Control wells contained either no drugs, or adenine at 15 or 30 μM, or 5′-deoxyadenosine (5′-dAdo) at 15, 30, or 45 μM. Treatment wells contained 6-methylpurine (MeP) at 5 or 15 μM, 5′-deoxyadenosine (5′-dAdo) at 15 or 30 μM, and adenine at 15 or 30 μM, in various combinations. After eight days of incubation at 37° C. in a humidified 5% CO2 atmosphere, wells were fixed by the addition of 1 ml of 5% glutaraldehyde. Photographs were taken of a randomly selected portion of each well, as viewed (at fixed magnification) through a Nikon inverted microscope equipped with a camera.

[3] = system: human and mouse tumor cells; test: Killing of tumor cells by adenine analogs (Applicants' findings, no method given); format: cell-based
[4] = system: MTAP(+) HT29 colon carcinoma cells; test: Coulter counts of HT29 cultures; format: cell-based, human; conditions: 4 days, 5′-dAdo 60 μM added one day before, where present, initial count 46,000, x4 = cells/dish
Procedure: as §1
• 5′-dAdo was added to cultures of MTAP(+) HT29 colon carcinoma cells for one day. 5-fluorouracil (FU) was then added and 4 days later cultures were trypsinized, thoroughly dispersed into mostly single cells by vigorous pipetting, and counted. • Initial Coulter count at time of addition of FU: 46,000

MTAP(−) HL-60 cells = test: Coulter counts of HL-60 suspension cultures; format: cell-based; conditions: six days, 5′-dAdo or Ade 60 μM added 3 hours before, where present, initial cell number/ml 8,160
Procedure: (§3) For cell types that grow in suspension (e.g., ML-1, HL-60, K-562) medium was RPMI-1640 with 10% FBS (undialyzed).
as §1
(§4) For cells that grow in suspension, the effect of treatments was assessed solely by changes in Coulter count.
• HL-60 cells were grown in RPMI 1640 with 10% FBS. 5′-dAdo, adenine, or neither were added, and after 3 hours, 5-fluorouracil (FU) was added to selected dishes. Six days later, cell numbers were assessed in a Coulter counter. • Initial cell number/ml: 8,160

MTAP(+) ML-1 cells = test: Coulter counts of ML-1 suspension cultures; format: cell-based; conditions: for Increase in cell number/ml, No 5′-dAdo: 2 days, FU 3 μM, TG 20 μM, DAP 50 μM where present, initial Coulter count/ml 308,000; for inhibition of growth of MTAP(+) ML-1 cells: Example 14
Procedure: as §3, §1, §4
• ML-1 cells were incubated in RPMI 1640 with 10% FBS with 5′-dAdo (60 μM) for 6 hours. 5-fluorouracil (FU), 6-thioguanine (TG), or 2,6-diaminopurine (DAP) were then added, and after 2 additional days, 0.5 ml was taken for Coulter counts. Initial Coulter count/ml: 308,000

[5] = system: MTAP-positive cells and cells lines; test: Applicants' tissue culture experiments on protection of MTAP-positive cells (summary statements); format: cell-based, human; mouse
MTAP(+) HF cells [6] = test: Clonogenic assay of HF cells; format: cell-based, human
Procedure: as §2
• B. F-Ade was added to cultures of MTAP(+) HF cells, with or without 5′-dAdo, for 3 days. Cultures were then trypsinized and serially diluted for clonogenic assay. • Initial number of viable cells per dish: 45,000 • Viable cells after 3 days shown below:
• HF cells were plated, and after they had adhered to the substrate, medium was changed to methionine-free medium, with 10% dialyzed serum. • Initial Coulter count: 73,000*; viable cells: 88,000 • After 3 days in methionine-free medium, with or without L-ethionine (Eth) or MTA: […]

[7] = MTX 1 μM or alanosine 3 μM for one day, then DAP 40 μM, 3 days (where present), initial viable cells 146,000

O=CN(O)CC(=O)O [hadacidin]
potentiation of selective killing of MTAP-negative cells by adenine and methionine antagonists (MTAP-negative cell lines): potentiated

CN(Cc1cnc2nc(N)nc(N)c2n1)c1ccc(C(=O)N[C@@H](CCC(=O)O)C(=O)O)cc1 [MTX, methotrexate]
Coulter counts (MTAP(+) HF cells [1]; 3 days, MTX 10 μM, DAP 100 μM, 5′-dAdo, MTA or Ade 15 μM where present, thymidine 15 μM in all cultures, initial count 1807): 3,455 | potentiation of killing of A549 cells by DAP (MTAP(−) A549 cells): strongly potentiated | Viable Cells (MTAP(−) A549 cells; [7]): 89,000 | potentiation of selective killing of MTAP-negative cells by adenine and methionine antagonists (MTAP-negative cell lines): potentiated

Cc1ncnc2nc[nH]c12 [MeP, 6-methylpurine]
Coulter counts (MTAP(+) HF cells [1]; MeP 5 μM, 5′-dAdo 20 μM or MTA 10 μM where present, 4 days, then fresh medium with 30 μM Ade, 2 days, initial count 1,157): 2,885 | toxicity to HF cells (MTAP(+) HF cells [1]; MeP 5-10 μM, Example 3): strongly toxic | toxicity to A549 cells, clonogenic assay (MTAP(−) A549 cells; 10 μM MeP): highly toxic | Viable Cells (MTAP(−) A549 cells; 4 days, MeP 10 μM, MTA, 5′-dAdo or Ade 20 μM where present, cell count at start 40,000, approximate): 0 | toxicity to colony-forming murine hematopoietic progenitors ([2]; MeP at doses of 5 and 15 μM): highly toxic | colonies observed (each field of view) ([2]; wells seeded at 250,000 cells/well, eight days, MeP 5 or 15 μM, adenine or 5′-dAdo 15 or 30 μM where present, control approximately 40-50 colonies): no colonies | killing of human and mouse tumor cells [3]: very rapid and potent killing

O=c1[nH]cc(F)c(=O)[nH]1 [FU, 5-fluorouracil]
Coulter counts ([4]; FU 3 μM): 65,300 | Coulter counts ([4]; FU 10 μM): 36,600 | Coulter counts ([4]; FU 30 μM): 25,500 | Coulter counts/ml (MTAP(−) HL-60 cells; FU 10 μM): 125,200 counts/ml | Coulter counts/ml (MTAP(−) HL-60 cells; FU 30 μM): 62,400 counts/ml | Increase in cell number/ml, No 5′-dAdo (MTAP(+) ML-1 cells): 436,000 /ml | inhibition of growth of MTAP(+) ML-1 cells (MTAP(+) ML-1 cells): inhibited growth | protection of MTAP-positive cells, but not MTAP-negative cells, from the toxicity of the nucleobase analog [5]: selectively protected

Nc1ncnc2nc[nH]c12 [Ade, adenine]
blocking of DAP toxicity in HF cells (MTAP(+) HF cells [1]; Example 8): blocked | blocking of MeP toxicity in A549 cells (MTAP(−) A549 cells; 10 μM MeP): blocked | blocking of DAP toxicity in A549 cells (MTAP(−) A549 cells; 100 μM DAP, Example 7): did | blocking of F-Ade toxicity in A549 cells (MTAP(−) A549 cells; 1 to 2 μM F-Ade): blocked

Nc1nc2nn[nH]c2c(=O)[nH]1 [8-azaguanine]
protection of MTAP-positive cells, but not MTAP-negative cells, from the toxicity of the nucleobase analog [5]: selectively protected

N[C@@H](CN(O)N=O)C(=O)O [Alanosine, alanosine]
potentiation of killing of A549 cells by DAP (MTAP(−) A549 cells): strongly potentiated | Viable Cells (MTAP(−) A549 cells; [7]): 118,000 | potentiation of selective killing of MTAP-negative cells by adenine and methionine antagonists (MTAP-negative cell lines): potentiated

CCSCC[C@H](N)C(=O)O [Eth, ethionine]
toxicity to HF cells (MTAP(+) HF cells [6]; 40 μM L-ethionine, methionine-free medium): very toxic | Viable Cells (MTAP(+) HF cells [6]; 3 days in methionine-free medium, Eth 40 μM, MTA 15 μM where present, initial viable cells 88,000): 1,600 | Viable Cells (MTAP(−) A549 cells; 4 days, methionine-free medium, Eth 40 μM, MTA 30 μM where present, initial viable cells 160,000): 24,000 | Viable Cells (MTAP(−) A549 cells; 4 days, methionine-free medium, Eth 80 μM, MTA 30 μM where present, initial viable cells 160,000): 5,000

Nc1nc2nc[nH]c2c(=S)[nH]1 [TG, 6-thioguanine]
Increase in cells/dish (MTAP(+) HF cells [1]; 3 days, TG 40 μM, DAP 50 μM, 5′-dAdo 60 μM where present, initial cell number 296,000): 72,000 cells/dish | inhibition of HF cell growth (MTAP(+) HF cells [1]; Example 15): inhibited | Viable Cells (MTAP(−) A549 cells; 3 days, TG 40 μM, DAP 50 μM where present, initial viable cells 275,000): 200,000 | Increase in cell number/ml, No 5′-dAdo (MTAP(+) ML-1 cells): 114,000 /ml | inhibition of growth of MTAP(+) ML-1 cells (MTAP(+) ML-1 cells): inhibited growth | protection of MTAP-positive cells, but not MTAP-negative cells, from the toxicity of the nucleobase analog [5]: selectively protected
